Here are results for eight compounds from PubChem BioAssay (NCI).

Test systems include OVCAR-4 ovarian; HOP-92 NSCLC; SF-295 CNS; OVCAR-5 ovarian; SK-MEL-5 melanoma; SNB-75 CNS; UO-31 renal; SW-620 colon; MOLT-4 leukemia.
Holding throughout (test): inhibition of tumour cell growth, NCI panel, 48 h

“And” between values parts separate entries of the source, which are not always exact repeats. Identical values can stand only once.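 Method: 48-hour compound exposure of cells in 96-well plates, five concentrations, linear interpolation of endpoints. GI50: concentration for 50% inhibition of growth. TGI is the concentration that stops growth completely.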 Where only a bound is given, the exact number is not on record here.

In the case of `CCOC(=O)Nc1nc2ccccc2[nH]1`, the GI50 in the test on OVCAR-4 ovarian is 28.8 µM and 60.6 µM; with HOP-92 NSCLC, more than 100 µM; in the test with SF-295 CNS it was 4.32 µM and 5.57 µM; in the test on OVCAR-5 ovarian, 15.8 µM and > 26.1 µM; in the test with SK-MEL-5 melanoma, 3.5 µM and 2.55 µM; in the test with SNB-75 CNS, 3.01 µM and 2.61 µM. The GI50 in the test on UO-31 renal is 5.8 µM and 5.34 µM; in the test with SW-620 colon it was 3.9 µM and 3.17 µM; with MOLT-4 leukemia, 4.57 µM and 5 µM. The TGI in the test with OVCAR-4 ovarian, in the test on HOP-92 NSCLC, with SF-295 CNS, in the test with OVCAR-5 ovarian, in the test on SK-MEL-5 melanoma and in the test with SNB-75 CNS was more than 100 µM each time. For the same compound, the TGI in the test with UO-31 renal, in the test on SW-620 colon and in the test with MOLT-4 leukemia was more than 100 µM in each case.

For `Cc1cc(C(=O)Nc2n[nH]c3ccccc23)n[nH]1`, the GI50 in the test with OVCAR-4 ovarian was more than 100 µM; in the test with HOP-92 NSCLC, more than 100 µM; with SF-295 CNS, more than 100 µM; in the test on OVCAR-5 ovarian, 67.9 µM; in the test with SK-MEL-5 melanoma it was more than 100 µM; in the test on SNB-75 CNS, 62.6 µM. The results for the GI50 in the test on UO-31 renal, with SW-620 colon and with MOLT-4 leukemia were 50.4 µM, more than 100 µM and more than 100 µM, respectively. Besides, the TGI in the test on OVCAR-4 ovarian, in the test on HOP-92 NSCLC, in the test on SF-295 CNS, in the test on OVCAR-5 ovarian, with SK-MEL-5 melanoma and with SNB-75 CNS was more than 100 µM throughout. In addition, the TGI with UO-31 renal, with SW-620 colon and in the test with MOLT-4 leukemia was more than 100 µM each time.

In the case of `C=C1C(=O)OC2C1C(OC(=O)/C(C)=C/C)CC(O)(CCl)C1C(O)C=C(C)C21O` (stereo not given), the TGI was 30 µM in the test with OVCAR-4 ovarian; 24.4 µM in the test with HOP-92 NSCLC; more than 100 µM in the test on SF-295 CNS; 32.4 µM in the test on OVCAR-5 ovarian; 27.7 µM with SK-MEL-5 melanoma; more than 59 µM in the test with SNB-75 CNS. The TGI with UO-31 renal is 33.9 µM; in the test on SW-620 colon, 15.7 µM; in the test on MOLT-4 leukemia, 20.6 µM.

For the compound `CCC1C(C)C=NN1c1nc(N)nc(C(C#N)=Nc2ccc(N(C)C)cc2)n1` (stereo not given), the GI50 was 16.3 µM with OVCAR-4 ovarian; 12.1 µM in the test on HOP-92 NSCLC; 8.96 µM in the test with SF-295 CNS; 10.2 µM with OVCAR-5 ovarian; 9.09 µM in the test with SK-MEL-5 melanoma; 8.95 µM in the test with SNB-75 CNS. In addition, the GI50 in the test with UO-31 renal is 15.1 µM; in the test on SW-620 colon it was 12.1 µM; in the test on MOLT-4 leukemia it was 21.6 µM. In addition, the TGI in the test with OVCAR-4 ovarian is more than 50 µM; with HOP-92 NSCLC, more than 50 µM; with SF-295 CNS it was 16.1 µM; in the test with OVCAR-5 ovarian, 26.6 µM; in the test on SK-MEL-5 melanoma it was 17.1 µM; in the test on SNB-75 CNS, 22.6 µM. Moreover, the figures for the TGI with UO-31 renal, in the test on SW-620 colon and in the test on MOLT-4 leukemia were more than 50 µM, 26.8 µM and more than 50 µM, respectively.

As to `Cc1ccc(S(=O)(=O)OCC#CCOS(=O)(=O)c2ccc(C)cc2)cc1`, the GI50 is 4.81 µM in the test on OVCAR-4 ovarian; 1.97 µM in the test on HOP-92 NSCLC; 1.74 µM in the test with SF-295 CNS; 4.99 µM in the test on OVCAR-5 ovarian; 3.69 µM in the test on SK-MEL-5 melanoma; 1.76 µM with SNB-75 CNS. Moreover, the values for the GI50 in the test on UO-31 renal, with SW-620 colon and in the test on MOLT-4 leukemia were 0.228 µM, 1.8 µM and 2.39 µM, respectively. Moreover, the TGI in the test with OVCAR-4 ovarian amounted to 13.6 µM; in the test with HOP-92 NSCLC, 4.17 µM; in the test with SF-295 CNS, 3.62 µM; in the test on OVCAR-5 ovarian, 14.5 µM; in the test on SK-MEL-5 melanoma, 9.96 µM; in the test on SNB-75 CNS, 4.38 µM. Further, the TGI stood at 0.538 µM in the test with UO-31 renal, 3.96 µM with SW-620 colon and 7.81 µM in the test with MOLT-4 leukemia.

For `O=C(Nc1cccc(-n2cc(-c3ccncc3)c(-c3ccc(O)c(Cl)c3)n2)c1)c1ccc2c(c1)OCCO2`, the GI50 was more than 100 µM in the test on OVCAR-4 ovarian; 2.26 µM in the test with HOP-92 NSCLC; 4.88 µM with SF-295 CNS; more than 100 µM with OVCAR-5 ovarian; 3.95 µM in the test with SK-MEL-5 melanoma; 4 µM in the test on SNB-75 CNS. For the same compound, the figures for the GI50 with UO-31 renal, with SW-620 colon and in the test with MOLT-4 leukemia were 4.03 µM, more than 100 µM and 4.88 µM, respectively. For the same compound, the TGI with OVCAR-4 ovarian, with HOP-92 NSCLC, in the test on SF-295 CNS, in the test with OVCAR-5 ovarian, with SK-MEL-5 melanoma and with SNB-75 CNS was more than 100 µM in each case. Moreover, the TGI in the test with UO-31 renal, in the test with SW-620 colon and in the test on MOLT-4 leukemia was more than 100 µM throughout.

As for `Nc1ccccc1C#C/C=C\C#CC#C/C=C\C#Cc1ccccc1N`, the GI50 in the test on OVCAR-4 ovarian is 14.6 µM; in the test with HOP-92 NSCLC, 1.77 µM; with SF-295 CNS it was 5.23 µM; in the test with OVCAR-5 ovarian it was 14.9 µM; in the test on SK-MEL-5 melanoma it was 8.43 µM; in the test with SNB-75 CNS it was 3.27 µM. Also, the GI50 in the test on UO-31 renal is 1.94 µM; with SW-620 colon, 7.54 µM; in the test with MOLT-4 leukemia, 1.01 µM. In addition, the TGI in the test with OVCAR-4 ovarian came to 92.8 µM; with HOP-92 NSCLC it was 8.35 µM; with SF-295 CNS it was 30.2 µM; with OVCAR-5 ovarian, 42.1 µM; in the test on SK-MEL-5 melanoma, 22.9 µM; with SNB-75 CNS, 22 µM. Moreover, the TGI with UO-31 renal amounted to 16.8 µM; in the test on SW-620 colon, 30.7 µM; in the test on MOLT-4 leukemia it was 18.4 µM.

With `COc1cccc(/C=C/c2nc3c(cnn3-c3ccccc3)c(=O)[nH]2)c1`, the GI50 with OVCAR-4 ovarian was more than 34.9 µM; with HOP-92 NSCLC, more than 100 µM; with SF-295 CNS, 17.8 µM; in the test on OVCAR-5 ovarian, more than 100 µM; in the test on SK-MEL-5 melanoma it was more than 96.6 µM; with SNB-75 CNS, more than 25 µM. The GI50 in the test on UO-31 renal was more than 56.8 µM; with SW-620 colon it was more than 31.4 µM; with MOLT-4 leukemia, more than 100 µM. For the same compound, the TGI with OVCAR-4 ovarian was more than 100 µM; in the test with HOP-92 NSCLC, more than 100 µM; with SF-295 CNS, more than 100 µM; with OVCAR-5 ovarian, more than 100 µM; with SK-MEL-5 melanoma it was more than 100 µM; in the test on SNB-75 CNS it was more than 89.3 µM. Moreover, the TGI in the test with UO-31 renal, in the test on SW-620 colon and in the test with MOLT-4 leukemia was more than 100 µM throughout.
